Experimental data from ChEMBL document CHEMBL1152288, “Characterization of thien-2-yl 1S,2R-milnacipran analogues as potent norepinephrine/serotonin transporter inhibitors for the treatment of neuropathic pain” (J Med Chem, 2008).

Tests used:
[1] = Apparent elimination half life in Sprague-Dawley rat at 30 mg/kg, po; format: ADME, organism-based; set-up: dose 30 mg/kg, route oral; settings: in vivo, read-out: beta t1/2 (converted)
Transporter = Transporter (Rattus norvegicus, UniProt Q63380); test: biochemical
Description: Displacement of Levo[ring-2,5,6-3H]norepinephrine from rat synaptosomal NET expressed in HEK293 cells by microplate scintillation counter

[2] = Metabolic stability in human liver microsomes assessed as systemic clearance at 1 uM after 15 mins by LC-MS/MS analysis; format: ADME, Microsome
[3] = Metabolic stability in rat liver microsomes assessed as systemic clearance at 1 uM after 15 mins by LC-MS/MS analysis; format: ADME, Microsome
[4] = Drug level in Sprague-Dawley rat brain at 30 mg/kg, po after 4 hrs; format: ADME, organism-based; set-up: dose 30 mg/kg, route oral; settings: read-out: Drug uptake
[5] = Ratio of drug level in brain to plasma in Sprague-Dawley rat at 30 mg/kg, po after 4 hrs; format: ADME, organism-based; set-up: dose 30 mg/kg, route oral
[6] = molecular target: Sodium-dependent dopamine transporter (Rattus norvegicus, UniProt P23977); test: biochemical
Description: Displacement of 3,4-[ring-2,5,6-3H]dihydroxyphenylethylamine from rat synaptosomal DAT expressed in HEK293 cells by microplate scintillation counter

[7] = Partition coefficient, log P of the compound; format: physicochemical; settings: octanol/water
[8] = molecular target: Sodium-dependent dopamine transporter (Homo sapiens, UniProt Q01959); test: biochemical
Description: Displacement of 3,4-[ring-2,5,6-3H]dihydroxyphenylethylamine from human cloned DAT expressed in HEK293 cells by microplate scintillation counter

[9] = Apparent oral clearance in Sprague-Dawley rat at 30 mg/kg, po; format: ADME, organism-based; set-up: dose 30 mg/kg, route oral; settings: in vivo
[10] = molecular target: Sodium-dependent serotonin transporter (Homo sapiens, UniProt P31645); test: biochemical
Description: Displacement of [alpha,beta-3H(N)]-5-hydroxytryptamine from human cloned SERT expressed in HEK293 cells by microplate scintillation counter

[11] = molecular target: Sodium-dependent noradrenaline transporter (Homo sapiens, UniProt P23975); test: biochemical
Description: Displacement of Levo[ring-2,5,6-3H]norepinephrine from human cloned NET expressed in HEK293 cells by microplate scintillation counter

[12] = molecular target: Sodium-dependent serotonin transporter (Rattus norvegicus, UniProt P31652); format: cell-based, HEK293
[13] = Lipophilicity, log D of the compound; format: physicochemical; settings: octanol/water
in vitro = settings: human, Caco-2
Description: Apparent permeability from apical to basolateral side of the human Caco-2 cells

[14] = Ratio of drug level in brain to plasma in Sprague-Dawley rat at 30 mg/kg, po after 1 hr; format: ADME, organism-based; set-up: dose 30 mg/kg, route oral
Rattus norvegicus = test: Antinociceptive activity in CD rat assessed as reduction in number of hind paw flinching at 60 mg/kg, po by formalin test; format: functional; set-up: scale not given: the % may be the effect or the level left
[15] = Tmax in Sprague-Dawley rat at 30 mg/kg, po; format: ADME, organism-based; set-up: dose 30 mg/kg, route oral; settings: in vivo
[16] = AUC in Sprague-Dawley rat at 30 mg/kg, po; format: ADME, organism-based; set-up: dose 30 mg/kg, route oral; settings: plasma
[17] = Cmax in Sprague-Dawley rat at 30 mg/kg, po; format: ADME, organism-based; set-up: dose 30 mg/kg, route oral; settings: in vivo
[18] = Drug level in Sprague-Dawley rat brain at 30 mg/kg, po after 1 hr; format: ADME, organism-based; set-up: dose 30 mg/kg, route oral; settings: read-out: Drug uptake
[19] = molecular target: Voltage-gated inwardly rectifying potassium channel KCNH2 (Homo sapiens, UniProt Q12809)
Description: Inhibition of human ERG expressed in HEK293 cells by patch-clamp method

[20] = Bioavailability in Beagle dog at 5 mg/kg, iv or 30 mg/kg, po; format: ADME, organism-based, Canis lupus familiaris; settings: in vivo
[21] = AUC in Beagle dog at 5 mg/kg, iv or 30 mg/kg, po; format: ADME, organism-based, Canis lupus familiaris; settings: plasma
[22] = Volume of distribution at steady state in monkey at 5 mg/kg, iv or 30 mg/kg, po; format: ADME, organism-based, Macaca mulatta; settings: rhesus monkey, in vivo, read-out: Vdss
[23] = Half life in monkey at 5 mg/kg, iv or 30 mg/kg, po; format: ADME, organism-based, Macaca mulatta; settings: rhesus monkey, in vivo
[24] = Plasma clearance in monkey at 5 mg/kg, iv or 30 mg/kg, po; format: ADME, organism-based, Macaca mulatta; settings: rhesus monkey
[25] = AUC in monkey at 5 mg/kg, iv or 30 mg/kg, po; format: ADME, organism-based, Macaca mulatta; settings: rhesus monkey, plasma
[26] = Cmax in Beagle dog at 5 mg/kg, iv or 30 mg/kg, po; format: ADME, organism-based, Canis lupus familiaris; settings: in vivo
[27] = Renal clearance in monkey at 5 mg/kg, iv or 30 mg/kg, po; format: ADME, organism-based, Macaca mulatta, Kidney; settings: rhesus monkey, in vivo; read-out: CL_renal
[28] = Cmax in monkey at 5 mg/kg, iv or 30 mg/kg, po; format: ADME, organism-based, Macaca mulatta; settings: rhesus monkey, in vivo
[29] = Volume of distribution at steady state in Beagle dog at 5 mg/kg, iv or 30 mg/kg, po; format: ADME, organism-based, Canis lupus familiaris; settings: in vivo, read-out: Vdss
[30] = Plasma clearance in Beagle dog at 5 mg/kg, iv or 30 mg/kg, po; format: ADME, organism-based, Canis lupus familiaris
[31] = Half life in Beagle dog at 5 mg/kg, iv or 30 mg/kg, po; format: ADME, organism-based, Canis lupus familiaris; settings: in vivo
[32] = Tmax in monkey at 5 mg/kg, iv or 30 mg/kg, po; format: ADME, organism-based, Macaca mulatta; settings: rhesus monkey, in vivo
[33] = Bioavailability in monkey at 5 mg/kg, iv or 30 mg/kg, po; format: ADME, organism-based, Macaca mulatta; settings: rhesus monkey, in vivo
[34] = Renal clearance in Beagle dog at 5 mg/kg, iv or 30 mg/kg, po; format: ADME, organism-based, Canis lupus familiaris, Kidney; settings: in vivo, read-out: CL_renal
[35] = Tmax in Beagle dog at 5 mg/kg, iv or 30 mg/kg, po; format: ADME, organism-based, Canis lupus familiaris; settings: in vivo
[36] = Bioavailability in mouse at 5 mg/kg, iv or 30 mg/kg, po; format: ADME, organism-based; settings: in vivo
[37] = Cmax in mouse at 5 mg/kg, iv or 30 mg/kg, po; format: ADME, organism-based; settings: in vivo, read-out: Vdss
[38] = Volume of distribution at steady state in mouse at 5 mg/kg, iv or 30 mg/kg, po; format: ADME, organism-based; settings: in vivo, read-out: Vdss
[39] = Tmax in mouse at 5 mg/kg, iv or 30 mg/kg, po; format: ADME, organism-based; settings: in vivo
[40] = Plasma clearance in mouse at 5 mg/kg, iv or 30 mg/kg, po; format: ADME, organism-based
[41] = Half life in mouse at 5 mg/kg, iv or 30 mg/kg, po; format: ADME, organism-based; settings: in vivo
[42] = AUC in mouse at 5 mg/kg, iv or 30 mg/kg, po; format: ADME, organism-based; settings: plasma

Sodium-dependent noradrenaline transporter, sequence (P23975 whole entry): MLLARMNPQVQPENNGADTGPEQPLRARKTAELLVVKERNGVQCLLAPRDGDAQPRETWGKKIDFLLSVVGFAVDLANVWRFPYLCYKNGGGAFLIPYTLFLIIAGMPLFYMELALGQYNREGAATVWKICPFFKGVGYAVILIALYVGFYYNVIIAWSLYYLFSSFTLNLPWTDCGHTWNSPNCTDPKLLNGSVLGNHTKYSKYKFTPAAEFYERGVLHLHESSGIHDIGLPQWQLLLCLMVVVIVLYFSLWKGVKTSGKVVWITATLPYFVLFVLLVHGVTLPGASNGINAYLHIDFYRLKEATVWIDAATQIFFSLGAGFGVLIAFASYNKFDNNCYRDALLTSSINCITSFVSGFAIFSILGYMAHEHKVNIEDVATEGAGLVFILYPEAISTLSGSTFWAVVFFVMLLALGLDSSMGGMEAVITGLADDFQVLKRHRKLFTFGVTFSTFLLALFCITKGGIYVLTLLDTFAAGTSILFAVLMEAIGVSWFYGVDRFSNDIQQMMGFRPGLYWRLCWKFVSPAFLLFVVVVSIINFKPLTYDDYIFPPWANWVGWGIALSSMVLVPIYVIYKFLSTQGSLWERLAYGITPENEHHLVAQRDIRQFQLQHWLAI
Sodium-dependent dopamine transporter (Homo sapiens, UniProt Q01959), sequence (Q01959 whole entry): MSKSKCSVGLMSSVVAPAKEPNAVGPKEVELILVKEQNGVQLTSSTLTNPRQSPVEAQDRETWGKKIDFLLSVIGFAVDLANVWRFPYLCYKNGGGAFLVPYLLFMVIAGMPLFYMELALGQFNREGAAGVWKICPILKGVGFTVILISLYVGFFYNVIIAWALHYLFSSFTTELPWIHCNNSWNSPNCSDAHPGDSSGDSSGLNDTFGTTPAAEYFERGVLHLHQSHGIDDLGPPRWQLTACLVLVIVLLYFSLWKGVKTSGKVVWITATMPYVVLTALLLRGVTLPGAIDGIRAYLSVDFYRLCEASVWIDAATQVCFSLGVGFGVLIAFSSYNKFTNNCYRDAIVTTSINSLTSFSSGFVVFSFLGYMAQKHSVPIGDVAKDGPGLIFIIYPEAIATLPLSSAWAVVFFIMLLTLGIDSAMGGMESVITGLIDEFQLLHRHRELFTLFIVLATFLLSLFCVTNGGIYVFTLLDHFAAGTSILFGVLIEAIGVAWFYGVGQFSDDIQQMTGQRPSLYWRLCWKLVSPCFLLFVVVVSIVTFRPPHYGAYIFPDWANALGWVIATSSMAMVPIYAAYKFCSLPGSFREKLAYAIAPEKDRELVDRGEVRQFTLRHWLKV
Sodium-dependent serotonin transporter (Homo sapiens, UniProt P31645), sequence (P31645 whole entry): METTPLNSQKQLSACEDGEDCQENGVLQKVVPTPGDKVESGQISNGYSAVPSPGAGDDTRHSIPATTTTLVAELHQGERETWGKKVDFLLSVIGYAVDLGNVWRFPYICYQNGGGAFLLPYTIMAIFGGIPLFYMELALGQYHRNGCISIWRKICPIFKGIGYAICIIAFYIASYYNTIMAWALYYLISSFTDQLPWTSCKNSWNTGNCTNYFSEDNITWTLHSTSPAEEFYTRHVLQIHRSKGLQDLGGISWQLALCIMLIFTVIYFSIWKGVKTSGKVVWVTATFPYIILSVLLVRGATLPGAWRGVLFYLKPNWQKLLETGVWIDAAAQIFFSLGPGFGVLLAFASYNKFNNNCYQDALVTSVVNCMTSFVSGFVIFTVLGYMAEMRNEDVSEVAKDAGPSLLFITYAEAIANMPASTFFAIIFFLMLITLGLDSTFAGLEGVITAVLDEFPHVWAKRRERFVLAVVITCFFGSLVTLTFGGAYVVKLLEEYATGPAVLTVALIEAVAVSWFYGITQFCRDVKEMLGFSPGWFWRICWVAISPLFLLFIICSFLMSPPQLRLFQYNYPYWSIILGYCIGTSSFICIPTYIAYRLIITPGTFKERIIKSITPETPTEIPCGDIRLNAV
Sodium-dependent serotonin transporter (Rattus norvegicus, UniProt P31652), sequence (P31652 whole entry): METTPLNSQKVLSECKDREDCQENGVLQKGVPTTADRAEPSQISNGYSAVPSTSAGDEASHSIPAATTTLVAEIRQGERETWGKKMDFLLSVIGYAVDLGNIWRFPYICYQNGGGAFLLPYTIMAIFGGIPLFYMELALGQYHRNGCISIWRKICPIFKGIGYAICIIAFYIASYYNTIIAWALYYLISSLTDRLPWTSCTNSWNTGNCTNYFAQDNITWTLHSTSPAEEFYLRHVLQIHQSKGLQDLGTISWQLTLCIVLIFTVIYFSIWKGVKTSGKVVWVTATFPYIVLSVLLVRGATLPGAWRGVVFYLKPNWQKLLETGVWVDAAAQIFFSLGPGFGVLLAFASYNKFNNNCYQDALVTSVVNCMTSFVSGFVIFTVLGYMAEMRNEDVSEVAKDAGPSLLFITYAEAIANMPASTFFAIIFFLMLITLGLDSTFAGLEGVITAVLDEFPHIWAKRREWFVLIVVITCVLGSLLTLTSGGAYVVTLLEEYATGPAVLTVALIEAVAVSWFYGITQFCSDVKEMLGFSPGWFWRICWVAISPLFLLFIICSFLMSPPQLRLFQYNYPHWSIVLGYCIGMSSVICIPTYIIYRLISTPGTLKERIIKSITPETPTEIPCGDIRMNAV
Sodium-dependent dopamine transporter (Rattus norvegicus, UniProt P23977), sequence (P23977 whole entry): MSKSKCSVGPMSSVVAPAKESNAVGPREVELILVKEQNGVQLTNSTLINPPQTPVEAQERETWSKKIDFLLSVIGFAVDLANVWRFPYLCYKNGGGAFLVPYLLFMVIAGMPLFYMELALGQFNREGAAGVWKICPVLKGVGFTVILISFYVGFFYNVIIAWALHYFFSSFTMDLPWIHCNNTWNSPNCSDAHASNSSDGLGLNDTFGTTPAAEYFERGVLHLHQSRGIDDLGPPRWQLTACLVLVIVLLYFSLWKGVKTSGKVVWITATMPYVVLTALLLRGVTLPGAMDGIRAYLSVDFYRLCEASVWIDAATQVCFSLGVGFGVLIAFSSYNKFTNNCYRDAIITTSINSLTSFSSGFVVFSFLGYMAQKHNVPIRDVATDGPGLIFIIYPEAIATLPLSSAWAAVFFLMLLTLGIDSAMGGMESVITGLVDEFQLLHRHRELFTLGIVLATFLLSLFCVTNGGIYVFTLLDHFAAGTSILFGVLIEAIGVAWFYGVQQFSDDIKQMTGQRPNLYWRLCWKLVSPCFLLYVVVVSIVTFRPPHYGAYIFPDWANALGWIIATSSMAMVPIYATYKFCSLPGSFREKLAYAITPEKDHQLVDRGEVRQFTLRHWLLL
Transporter, sequence (Q63380 whole entry): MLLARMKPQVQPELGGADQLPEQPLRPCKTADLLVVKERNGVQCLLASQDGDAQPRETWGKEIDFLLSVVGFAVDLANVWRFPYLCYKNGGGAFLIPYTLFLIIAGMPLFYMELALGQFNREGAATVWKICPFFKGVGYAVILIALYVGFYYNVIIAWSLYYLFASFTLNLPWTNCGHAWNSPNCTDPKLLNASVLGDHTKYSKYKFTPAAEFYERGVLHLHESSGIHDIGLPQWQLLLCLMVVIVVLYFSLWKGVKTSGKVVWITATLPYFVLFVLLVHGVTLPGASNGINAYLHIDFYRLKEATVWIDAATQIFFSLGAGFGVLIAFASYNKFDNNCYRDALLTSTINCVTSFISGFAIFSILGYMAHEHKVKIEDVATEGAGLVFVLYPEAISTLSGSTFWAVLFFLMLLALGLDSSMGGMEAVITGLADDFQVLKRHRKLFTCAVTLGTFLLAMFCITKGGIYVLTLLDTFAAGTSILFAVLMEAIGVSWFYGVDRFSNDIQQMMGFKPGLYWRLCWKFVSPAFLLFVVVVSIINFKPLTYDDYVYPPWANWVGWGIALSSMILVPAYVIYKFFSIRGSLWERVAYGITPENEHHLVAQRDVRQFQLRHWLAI
Voltage-gated inwardly rectifying potassium channel KCNH2, sequence (Q12809 whole entry): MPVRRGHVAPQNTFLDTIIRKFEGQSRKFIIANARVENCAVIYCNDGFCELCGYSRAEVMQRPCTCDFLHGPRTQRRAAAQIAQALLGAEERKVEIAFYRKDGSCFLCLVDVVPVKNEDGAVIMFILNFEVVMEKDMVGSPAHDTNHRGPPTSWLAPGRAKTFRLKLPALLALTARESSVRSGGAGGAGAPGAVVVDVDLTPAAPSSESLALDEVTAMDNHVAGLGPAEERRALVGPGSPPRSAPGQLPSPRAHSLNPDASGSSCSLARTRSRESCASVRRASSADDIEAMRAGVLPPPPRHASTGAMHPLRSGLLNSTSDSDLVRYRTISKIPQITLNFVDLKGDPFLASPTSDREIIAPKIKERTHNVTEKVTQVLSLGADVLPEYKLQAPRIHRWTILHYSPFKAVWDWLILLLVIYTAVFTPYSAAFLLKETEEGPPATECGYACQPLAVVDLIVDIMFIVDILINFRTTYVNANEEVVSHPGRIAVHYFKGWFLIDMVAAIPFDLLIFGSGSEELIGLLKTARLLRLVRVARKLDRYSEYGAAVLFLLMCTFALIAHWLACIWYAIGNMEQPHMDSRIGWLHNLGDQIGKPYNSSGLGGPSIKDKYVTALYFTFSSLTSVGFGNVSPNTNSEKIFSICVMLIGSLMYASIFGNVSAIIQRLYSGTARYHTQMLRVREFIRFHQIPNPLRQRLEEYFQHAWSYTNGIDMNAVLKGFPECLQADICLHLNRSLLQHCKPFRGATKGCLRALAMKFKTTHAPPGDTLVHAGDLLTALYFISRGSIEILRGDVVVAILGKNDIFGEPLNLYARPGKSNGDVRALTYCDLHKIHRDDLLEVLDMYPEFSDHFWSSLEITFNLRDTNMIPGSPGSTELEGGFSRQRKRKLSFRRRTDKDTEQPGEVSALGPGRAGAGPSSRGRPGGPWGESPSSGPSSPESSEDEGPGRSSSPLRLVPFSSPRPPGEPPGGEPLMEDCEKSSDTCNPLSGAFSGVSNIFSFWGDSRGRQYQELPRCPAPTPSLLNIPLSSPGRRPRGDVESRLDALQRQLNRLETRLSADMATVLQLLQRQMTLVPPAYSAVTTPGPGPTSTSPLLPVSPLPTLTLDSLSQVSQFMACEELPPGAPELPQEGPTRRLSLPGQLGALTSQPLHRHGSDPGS
Description for physchem: Dissociation constant, pKa of the compound

In the case of `NC[C@@H]1C[C@@]1(C(=O)N1Cc2ccccc2C1)c1cccs1`, the half-life [1] is reported as 2.3 h, the IC50 (Transporter) is reported as 15 nM and the CLhep predicted at 1 µM [2] is reported as 8.8 mL/min/kg. For the same molecule, the CLhep predicted at 1 µM [3] was 64 mL/min/kg, the concentration at 4 h [4] was 24 ng/g and the Kp at 4 h [5] was 1.8. The IC50 [6] was 2000 nM, the logP [7] was 2.2 and the IC50 [8] was 5540 nM. It also gave a CL/F [9] of 1840 mL/min/kg, an IC50 [10] of 13 nM and an IC50 [11] of 21 nM. For the same molecule, the IC50 [12] was 25 nM, the logD [13] was 0.5 and the Papp A→B (in vitro) was 8.4 ×10⁻⁶ cm/s. The Kp at 1 h [14] was 1, the pKa (physchem) was 9.5 and the Activity (Rattus norvegicus) was 56%. For the same molecule, the Tmax [15] was 1.1 h, the AUC [16] was 272 ng·h/mL and the Cmax [17] was 58 ng/mL. It also gave a concentration at 1 h [18] of 28 ng/g.

With `C=CCN(C(=O)[C@@]1(c2cccs2)C[C@H]1CN)C1CC1` the CLhep predicted at 1 µM [2] was 5 mL/min/kg, the CLhep predicted at 1 µM [3] was 63 mL/min/kg and the IC50 [8] was > 10000 nM. For the same molecule, the IC50 [10] was 45 nM, the IC50 [11] was 17 nM and the IC50 [19] was > 10000 nM. It also gave a Papp A→B (in vitro) of 17.8 ×10⁻⁶ cm/s.

Work on `C=C(F)CN(CC)C(=O)[C@@]1(c2cccs2)C[C@H]1CN.Cl` yielded a bioavailability [20] of 109%, an AUC [21] of 47500 ng·h/mL and a Vd [22] of 4.4 L/kg. The half-life [23] was 4.3 h, the clearance [24] was 34 mL/min/kg and the AUC [25] was 9050 ng·h/mL. It also gave a Cmax [26] of 5570 ng/mL, a CL renal [27] of 6 mL/min/kg and a Cmax [28] of 2440 ng/mL. For the same molecule, the Vd [29] was 2.4 L/kg, the clearance [30] was 10.8 mL/min/kg and the half-life [31] was 3.5 h. For the same molecule, the Tmax [32] was 2.3 h, the bioavailability [33] was 70% and the CL renal [34] was 2.2 mL/min/kg. The Tmax [35] was 1.2 h.

In the case of `C=CCN(CC=C)C(=O)[C@@]1(c2cccs2)C[C@H]1CN.Cl`, the bioavailability [20] is reported as 78%, the AUC [21] is reported as 17100 ng·h/mL and the Vd [22] is reported as 3.8 L/kg. The half-life [23] was 2.1 h, the bioavailability [36] was 92% and the Cmax [37] was 1730 ng/mL. It also gave a Vd [38] of 5.4 L/kg, a Tmax [39] of 0.3 h and a clearance [40] of 135 mL/min/kg. For the same molecule, the clearance [24] was 22.9 mL/min/kg, the AUC [25] was 6320 ng·h/mL and the CL renal [27] was 3.9 mL/min/kg. The Cmax [28] was 905 ng/mL, the half-life [41] was 0.79 h and the AUC [42] was 3020 ng·h/mL. It also gave a Vd [29] of 3.6 L/kg, a clearance [30] of 19.2 mL/min/kg and a half-life [31] of 2.4 h. It also gave a Tmax [32] of 4.5 h, a bioavailability [33] of 34% and a CL renal [34] of 2 mL/min/kg. For the same molecule, the Tmax [35] was 1.8 h.

In the case of `C=CCN(CC)C(=O)[C@@]1(c2cccs2)C[C@H]1CN`, the CLhep predicted at 1 µM [2] is reported as 11 mL/min/kg, the CLhep predicted at 1 µM [3] is reported as 62 mL/min/kg and the IC50 [8] is reported as > 10000 nM. It also gave an IC50 [10] of 140 nM, an IC50 [11] of 15 nM and a Papp A→B (in vitro) of 13.7 ×10⁻⁶ cm/s.

With `C=CCN(CC)C(=O)[C@@]1(c2ccsc2)C[C@H]1CN` the IC50 (Transporter) was 6.4 nM, the IC50 [6] was > 10000 nM and the IC50 [12] was 27 nM. For the same molecule, the Activity (Rattus norvegicus) was 56%.
